Measurements: patent US12673029B2, “Nanodelivery system based on globulin-1 S allele, preparation method therefor and use thereof” (Zhejiang Gongshang University, priority 2022, dated 2026)

Assays:
[1] = system: wheat GSA protein (globulin-1 S allele); assay: Fluorescence quenching determination of the binding force of wheat GSA protein to curcumin; conditions: for KSV (Stern-Volmer dynamic quenching constant): GSA 1 μM, curcumin 1-10 μM
Procedure: A wheat GSA protein solution and a curcumin solution were mixed in a certain ratio (1:1, 1:2, 1:5, 1:10) at different temperatures (298 K, 303 K, 310 K) for 2 hours. The final concentration of GSA was 1 μM, wherein the molecular weight of GSA was 56.16 KDa and the concentration of curcumin was 1 μM, 2 μM, 5 μM and 10 μM. The excitation spectrum was set at 280 nm, the emission spectrum was from 320 nm to 500 nm, and the recording temperature was 298 K, 303 K, and 310 K.
At an excitation wavelength of 280 nm, tryptophan and tyrosine residues will be excited. Binding of proteins and small molecules will lead to a decrease in fluorescence emission. As the concentration of curcumin increased, the fluorescence intensity decreased constantly and a slight red shift appeared.
Fluorescence quenching can be divided into dynamic quenching and static quenching. A dynamic quenching process can be distinguished by a Stern-Volmer equation: F0/F=1+KSV[Q]=1+Kqτ0[Q] (1)
wherein F0 and F are the GSA fluorescence intensity of the system in the absence and presence of curcumin, respectively; [Q] is the concentration of a quencher curcumin; and Kq is a fluorescence quenching rate constant.
Values for a static quenching mechanism, a binding constant and the number of binding sites can be obtained from a […] equation: log[(F0-F)/F]=log(Ka)+n log[Q] (2)
wherein Ka is a binding constant, [Q] is the concentration of curcumin, and n is the number of binding sites. A log-log plot of log[(F0−F)/F] versus log[Q] was made at 298 K, 303 K, and 310 K, respectively, according to the equation, as shown in FIG. 3. Ka and n at different temperatures were obtained from the intercept and slope.
To determine the action force between GSA and curcumin, the temperature-dependent thermodynamic parameters (ΔG, ΔH, and ΔS) were calculated using the following equations: -lnK==−ΔH/RT+ΔS/RΔG=ΔH−TΔS (3) • wherein R is a gas constant (8.314 J/mol*K), and T is the experimental temperature.

Dendritic cells DC2.4 = assay: Biological activity assay in OVA-sensitized dendritic cells DC2.4 (qRT-PCR of pro-inflammatory cytokines); format: cell-based; conditions: DC2.4 cells sensitized with OVA, cultured 24 hours
Procedure: Dendritic cells DC2.4 were sensitized by treatment with ovalbumin (OVA) and cultured for 24 hours with curcumin and wheat GSA protein-curcumin composite nanoparticles as experimental groups, respectively, and relevant experiments were conducted. Total RNA was extracted from the cells, and subjected to reverse transcription according to the instructions to obtain cDNA of relevant cells, and a quantitative reverse transcription polymerase chain reaction (qRT-PCR) was carried out by using a real-time fluorescence quantitative PCR system.

[2] = Light stability assay under UV irradiation (absorbance at 426 nm); format: physicochemical; conditions: 30 W UV lamp
Procedure: 0.93 mg of curcumin and 14.96 mg of wheat GSA protein-curcumin composite nanoparticles were accurately weighed to be separately put in petri dishes, and were irradiated at a close range with a 30 W UV lamp, sampling was performed at 0 h, 1 h, 2 h, 3 h, 4 h, 5 h, and 6 h, the samples were separately dissolved with a […], a volume was made up to a constant volume of 250 mL, 10 mL of the prepared solution was taken, and an absorbance at 426 nm was measured, wherein the absorbance was measured for three times to take an average.

Kq (fluorescence quenching rate constant) ([1]; 298 K): 1.3981 10^13 L/mol*s
Ka value, order of magnitude ([1]; 298 K, 303 K, and 310 K, 120 min): ~10^6
Ka (binding constant) ([1]; 298 K, 120 min): 8.5822 10^6 L/mol
KSV (Stern-Volmer dynamic quenching constant) ([1]; 298 K): 1.3981 10^5 L/mol
Kq (fluorescence quenching rate constant) ([1]; 303 K): 2.0211 10^13 L/mol*s
Ka (binding constant) ([1]; 303 K, 120 min): 15.7797 10^6 L/mol
KSV (Stern-Volmer dynamic quenching constant) ([1]; 303 K): 2.0211 10^5 L/mol
Kq (fluorescence quenching rate constant) ([1]; 310 K): 3.0636 10^13 L/mol*s
Ka (binding constant) ([1]; 310 K, 120 min): 16.9238 10^6 L/mol
KSV (Stern-Volmer dynamic quenching constant) ([1]; 310 K): 3.0636 10^5 L/mol
absorbance at 426 nm after UV irradiation ([2]; 2 h of UV irradiation): 0.606
absorbance at 426 nm after UV irradiation ([2]; 5 h of UV irradiation): 0.252
absorbance at 426 nm after UV irradiation ([2]; 6 h of UV irradiation): 0.214
decrease of absorbance after UV irradiation ([2]; 6 h of UV irradiation): 75%
Compound: COc1cc(/C=C/C(=O)CC(=O)/C=C/c2ccc(O)c(OC)c2)ccc1O [curcumin, Curcumin]
alleviating effect on the allergic effect produced by OVA (pro-inflammatory cytokine mRNA such as IL-6) (Dendritic cells DC2.4): a certain alleviating effect
